row,Compound,melting point [°C]
1,CCCN(CCC)C1Cc2cc3c(cc2C1)C(=O)N(Cc1cccnc1)C3=O,141 to 146
2,Cc1ccc(NC(=O)Nc2ccc(Oc3cc(Cl)ncn3)cc2)cc1C(F)(F)F,183 to 184
3,COc1ccc(-c2ccc3c(C(=O)c4ccn5c4C(C)(C)SC5c4cccnc4)c[nH]c3c2)cc1 (configuration not stated),236 to 239
4,CCOC(=O)c1ccc2nc(N[C@@H]3CCc4ccccc43)ccc2c1,137
5,CCc1c(C)[nH]c(=O)c(N(C)C)c1Cc1cc(C)cc(C)c1,229 to 230
6,COc1c(C)c(C)c(OC)c(C=CC(=O)C(=O)O)c1C,126 to 127
7,Cc1oc(-c2ccccc2)nc1COc1ccc(COc2ccccc2CC(=O)O)cc1,153 to 154
8,CCCCC1CCC(c2ccc(Cc3ccc(N)cc3)cc2)(c2ccc(Cc3ccc(N)cc3)cc2)CC1,58.5 to 60.1
9,O=C1NC(=O)C(Cc2ccc(S(=O)(=O)CCc3ccccc3)cc2)S1 (configuration not stated),201 to 203
10,CCC1NC(=O)N(C)C(=O)N1,202 to 203
11,CC(=O)N[C@@H](c1ccccc1)[C@@H](O)C(=O)OC(C)C,104 to 106
12,CC(C)OC(=O)CCc1ccc(-n2ccn(-c3ccc(C(=N)N)cc3)c2=O)cc1,> 250
13,Cc1nc(C)c(=O)n(CCO)c1C,140 to 144
14,O=C(C=Cc1cncc(F)c1)NCCCCN1CCN(C(c2ccccc2)c2ccccc2)CC1,128 to 129
15,O=Cc1cccc(/C=C/c2ccc3cc(F)ccc3n2)c1,110 to 111
16,NC(=O)Nc1cc(Oc2ncccc2C(F)(F)F)c(Cl)cc1F,> 220
17,Cc1ccc(-c2cc(C)ccc2C=CC#Cc2ccc(C(=O)O)cc2)cc1,71 to 73
18,CCCCCCCCCCCCCCc1ccc(OCC(O)CO)cc1 (configuration not stated),81.5 to 83.5
19,CN1CCN(c2cc(F)cc3c(=O)cc(C(=O)Nc4ccc(N5CCN(C(=O)O)CC5)cc4)oc23)CC1,236 to 238
20,CCC(C)(C)c1ccc(OCCCCNC(=O)c2[nH]c3ccc(OC)cc3c2N)c(C(C)(C)CC)c1,145 to 146
21,OCc1cnoc1-c1cccc(Cl)c1,80 to 81
22,CCCN(CCN1CCN(c2ccc3[nH]ccc3c2)CC1)C1CCc2ccc(O)cc2C1 (configuration not stated),179 to 183
23,COC(=O)CCCCCCCCOC1OC(CO)C(OC2OC(C)C(O)C(O)C2O)C(O)C1NC(C)=O (configuration not stated),145 to 146
24,N#Cc1cccc(C=CC(=O)c2ccc(F)cc2)c1,170 to 172
25,CN1CCC(OC2c3cccc(OCc4ccccc4)c3CCn3cc(-c4ccccc4)nc32)CC1 (configuration not stated),68

row,Compound,melting point [°C]
1,O=C(O)CCC(=O)c1ccc(Br)c(S(=O)(=O)Cl)c1,183 to 185
2,CCn1cc(C(=O)O)c(=O)c2cc(F)c(N3CCN(S(=O)(=O)c4ccc(C)cc4)CC3)c(F)c21,236 to 237
3,O=C1c2ccccc2-c2c1c1cc3c(cc1c(=O)n2CCCNS(=O)(=O)c1ccccc1)OCO3,225 to 226
4,CCCCCCCCCCCCCCCCC(COC(C)=O)(COC(C)=O)NC(C)=O,84 to 86
5,COc1ccc2ccc(N3C(=O)c4ccccc4C3OCC(=O)CC(C)C)nc2n1 (configuration not stated),120
6,CC(=O)OC1C(Oc2cccc(O)c2C(=O)CCc2ccc3occc3c2)OC(CO)C(O)C1OC(C)=O (configuration not stated),127 to 129
7,CCN(CC)CCCNC(=O)Cn1cc(-c2ccccc2)cn1,55 to 57
8,CCCOc1ccc([N+](=O)[O-])cc1C1=NC(=O)C2=NC=NC2=N1,254 to 256
9,CC(=O)c1ccc(NC(=O)N2CCN(c3ncnc4c(Cl)cccc34)CC2)cc1,208 to 209
10,CCOC(=O)C1(c2cccs2)CC(CC)=NNC1C (configuration not stated),127
11,CC(=O)OC1CCC2(C)C(=CCC3C2CCC2(C)C(C(C)CCC(=O)O)CCC32)C1 (configuration not stated),192 to 193
12,CCCCOc1ccc(C(=O)Nc2ccc3cc(CN4CCCC4)cnc3c2C)c(F)c1,138
13,CC(C)C(=O)NC1CCc2c(c3cc(-c4ccccn4)ccc3n2Cc2cccc(F)c2)C1 (configuration not stated),228 to 230
14,CNC(=O)c1ccccc1Nc1nc(Nc2ccc3c(n2)CCCCS3)ncc1Cl,169 to 174
15,Cc1cccnc1C(O)c1ccc(N)cc1 (configuration not stated),153 to 154
16,CN(O)C(=O)NCCCOc1ccc(-c2ccccc2)cc1,161 to 162
17,N#Cc1cnc2c(c1Cl)C=C1N=CN=C1C2,> 300
18,O=C(Nc1ccc(F)cc1F)Nc1cnc2cc3c(cc2c1-c1ccccc1Cl)CCC3,247 to 248
19,O=c1oc(-c2ccc(-n3ccnc3)c(C(F)(F)F)c2)nn1Cc1cc(Cl)ccc1O,178 to 180
20,N#Cc1cc(C(=O)NN2CCOCC2)ccc1OCC(=O)O,205 to 206
21,Cc1c(C(=O)NC2CCN(Cc3ccccc3)CC2)c2cc(F)ccc2n1C,169 to 172
22,CCOCCNCCOc1ccc(NC(=O)c2ccccc2NS(C)(=O)=O)cc1,171 to 172
23,COc1ccc2nc(C)[nH]c(=O)c2c1Br,273 to 274
24,C[Si](C)(C)C#Cc1ccc2c(c1)C(=O)N(c1ccc3c(c1)C=C3)C2=O,192 to 193
25,COc1cc2c(cc1OC)N(C(=O)CCSC(C)=O)C(C(=O)O)CC2 (configuration not stated),104 to 107

row,Compound,melting point [°C]
1,CCC1(CC(=O)OC)OCCc2c1[nH]c1c(CCO)c(F)ccc21 (configuration not stated),101 to 103
2,CC(C)(C)c1ccc(/C=C/C(=O)Nc2ccccc2)cc1,141
3,COc1cc(-c2ccc3c(c2)CC[C@H]2N(C)C(=O)CC[C@]32C)ccc1O,247 to 250
4,CCOC(=O)C1=C(C)NC(CSCCl)=C(C(=O)OCC)C1c1cccc([N+](=O)[O-])c1 (configuration not stated),157 to 159
5,CC(C)(C)OC(=O)NNC(=O)Cc1nc2cc(F)c(N3CCN(C(=O)OC(C)(C)C)CC3)cc2n1C1CC1,202 to 203
6,COP(=O)(CC(=O)[C@@H]1COC(C)(C)N1C(=O)OC(C)(C)C)OC,86 to 87
7,C[C@@H]1O[C@@]1(Cn1cncn1)c1ccc(F)cc1F (racemic),66 to 68
8,CC(=O)Nc1nc(Cl)c(NC=O)c(N[C@@H]2C=C[C@H](CO)C2)n1 (relative stereo),194 to 195
9,CC(C)(C)c1cc(-c2nc3n(c2CN2CCOCC2)CCS3)cc(C(C)(C)C)c1O,231 to 233
10,CCOC(=O)C(O)(Cc1ccc2ccccc2n1)C(=O)OCC,71 to 72
11,COc1ccccc1N1CCN(c2nc3cccc4c3n2CCC4)CC1,199 to 201
12,Cc1cccc(C(O)CNC(=C[N+](=O)[O-])NCCSCc2cc(C)c(CN(C)C)s2)c1 (configuration not stated),88 to 89
13,Cc1nc(-n2cnn(Cc3ccc(F)cc3)c2=O)sc1CO,164 to 166
14,CC(C)C(NC(=O)c1ccc(-c2ccccc2)cc1)C(=O)O (configuration not stated),168
15,CC(C)(C)c1cc(C=C2CC(C)(C)N(C(N)=O)C2=O)cc(C(C)(C)C)c1O,200 to 203
16,CNC(=O)C1=CC(CF)(CF)Oc2ccc(C#N)cc21,206 to 207
17,O=[N+]([O-])c1ccc(Cl)cc1Nc1ccccc1Cl,97
18,Cc1c(C)n(CC=CCl)c2c(OCc3ccc(F)cc3)nncc12,110 to 115
19,CC(C)n1c2cc(Cl)ccc2c2oc(C(=O)Cl)cc21,141 to 142
20,CC(C)c1ccc(NC(=O)Cn2cnc3[nH]c(=O)[nH]c(=O)c32)cc1,320 to 325
21,Cn1c([N+](=O)[O-])cnc1C1=NO[C@@H]2CCCCCC[C@@H]12 (relative stereo),106 to 109
22,O=[N+]([O-])c1ccc(F)cc1Br,42
23,CCCCC1OC(=O)c2cc(NC(N)=S)ccc21 (configuration not stated),183 to 185
24,O=C1OC(=O)c2cc3c(ccc4ccccc43)cc21,278
25,CON=C(C)c1cc2c(Oc3ccc(Cl)cc3)cncc2s1,126 to 128

row,Compound,melting point [°C]
1,CN1CCC(OC(=O)Cc2cnn(-c3ccccc3)c2-c2ccc(Cl)cc2)CC1,90 to 93
2,CCS(=O)(=O)Nc1ccc(Cc2ccc(N)cc2)cc1,108 to 109
3,ClC(Cl)=NC(Cl)(Cl)C(Cl)(Cl)N=C(Cl)Cl,167
4,O=C1CCCN1c1cccc(-n2cnc3cc(-c4ccoc4)cnc32)c1,208 to 210
5,COc1c(N2CCC(N(C)C)C(C)C2)c(F)c(N)c2c(=O)c(C(=O)O)cn(C3CC3)c12 (configuration not stated),210
6,CC(C)(CC(O)(CO)C(F)(F)F)c1cc(Br)cc2c1OCC2 (configuration not stated),124 to 128
7,CN1CCN(c2cc(Cl)cc3c2c(=O)n(Cc2ccccc2[N+](=O)[O-])c(=O)n3Cc2ccccc2)CC1,164 to 169
8,COc1ccc2cc(S(N)(=O)=O)oc2c1,148 to 149
9,Nc1nc2ccc(SC(F)(F)F)cc2s1,155
10,O=S(=O)(Nc1cccnc1Nc1ccccc1)c1ccccc1Cl,140 to 141
11,CC1c2cccn2-c2ccc(Br)cc2N1S(=O)(=O)c1ccc(O)cc1 (configuration not stated),204 to 206
12,CCCCCC(C)C(C)c1cc(O)c2c(c1)oc(=O)c1ccncc12 (configuration not stated),122 to 123
13,Nn1c(C(F)(F)F)cc(=O)n(-c2cc(Oc3ncccc3[N+](=O)[O-])c(Cl)cc2F)c1=O,90 to 96
14,Cn1cc(-c2cccc(C3NCCc4c3sc3c4CC(C)(C)C3)c2CO)cc(Nc2cnn3c2COCC3)c1=O (configuration not stated),167 to 168
15,CN(C)c1cc(CC#N)cc(Cc2nc3c(F)c(F)cc(F)c3s2)c1,99 to 100
16,COc1ccc(N2CCN(C[C@H]3COc4ccc5nc(C)ccc5c4O3)CC2)cc1,164 to 165
17,C#Cc1cn(C2CC(OC(=O)C(C)(C)C)C(COC(=O)C(C)(C)C)O2)c(=O)[nH]c1=O (configuration not stated),151
18,CC(C)c1cccc(C(C)C)c1NC(=O)C(C)(C)CCCOc1ccc2c(c1)C=C(c1nccn1C)C(CCc1ccccc1)O2 (racemic),108 to 110
19,Cc1nnc(-c2ccc3occ(-c4cnn(Cc5ccccc5F)c4)c3c2)o1,142 to 143
20,O=C(O)c1ccc(NC(=O)C(CC2CCCC2)c2ccc(-c3cccc4ccccc34)cc2)nc1 (configuration not stated),155 to 158
21,O=C(NC1CCN(CCc2ccccc2)CC1)C1=Cc2cnc3cccc(n23)S1,216 to 217
22,Cc1ccc(Sc2c(N)cc(C(=O)O)cc2SCc2ccccc2)cc1,177 to 179

# Reference: a melting point compilation (Tetko et al.; mined from patent text by program, amines drawn as free bases though some values may be those of a salt)
